Assay results: paper PMC10178848, “Modulating fast skeletal muscle contraction protects skeletal muscle in animal models of Duchenne muscular dystrophy” (The Journal of Clinical Investigation, 2023)

Assays:
LCK = biological target: T1, LCK (Homo sapiens, UniProt P06239); assay: SAFETYscan Binding; set-up: dose or concentration left out as unconfirmed; settings: read-out: Max Response (%) (Antagonist)
T1 construct: purchased Eurofins DiscoverX (KINOMEscan; SAFETYscan E/IC50 ELECT)
Description: (§1) The specificity of EDG-5506 for fast skeletal myosin over other, unrelated proteins was confirmed using two off-target binding and activity screens. […] A second off-target panel (SAFETYscan E/IC50 ELECT, Eurofins DiscoverX) tested in vitro enzyme activity against 78 proteins, including GPCR, ion channel, kinases, nuclear hormone receptors, and transporters. In all assays, the IC50 of EDG-5506 was more than 10 μM (Supplemental Data File 1).

VEGFR2 = biological target: T2, VEGFR2 (Homo sapiens, UniProt P35968); assay: SAFETYscan Binding; set-up: dose or concentration left out as unconfirmed; settings: read-out: Max Response (%) (Antagonist)
T2 construct: purchased Eurofins DiscoverX (KINOMEscan; SAFETYscan E/IC50 ELECT)
Description: as §1

INSR = biological target: T3, INSR (Homo sapiens, UniProt P06213); assay: SAFETYscan Binding; set-up: dose or concentration left out as unconfirmed; settings: read-out: Max Response (%) (Antagonist)
T3 construct: purchased Eurofins DiscoverX (KINOMEscan; SAFETYscan E/IC50 ELECT)
Description: as §1

ROCK1 = biological target: T4, ROCK1 (Homo sapiens, UniProt Q13464); assay: SAFETYscan Binding; set-up: dose or concentration left out as unconfirmed; settings: read-out: Max Response (%) (Antagonist)
T4 construct: purchased Eurofins DiscoverX (KINOMEscan; SAFETYscan E/IC50 ELECT)
Description: as §1

[1] = test system: mixed fast/slow mouse soleus muscle; assay: Ex vivo isometric force, mouse soleus; settings: 31% type I, 60% type IIa/IIx
Description: Isometric force was measured ex vivo in mouse EDL and soleus muscle. EDL muscle eccentric injury was based on published protocols ([30]), with degree of lengthening and stimulation modified to yield a uniform drop in mdx isometric and peak force over 10 contractions. After isolation, muscle was mounted via 5-0 suture to a combination servomotor/force transducer (300C-LR, Aurora) between 2 electrodes connected to a stimulator (701C, Aurora) in Ringers solution at 27°C with continuously infused CO2/O2 gas mixture. Experiments were recorded with custom MATLAB software via a National Instruments PCIe-6321 board and 2090A BNC connector. Muscles were preincubated for 60 minutes with DMSO (final 0.1%)/compound before 10 eccentric contractions, 1 minute apart, with 100 milliseconds of isometric stimulation at 100 Hz and active lengthening of 0.1 L0 at a rate of 2 L0/s. After lengthening, muscles were held at 1.1 L0 with stimulation for 100 milliseconds (Supplemental Figure 2A).

MLK1 = biological target: T5, MLK1 (Homo sapiens, UniProt P80192); assay: KINOMEscan scanEDGE; type: binding; settings: 20 uM
T5 construct: purchased Eurofins DiscoverX (KINOMEscan; SAFETYscan E/IC50 ELECT)
Description: as §1

FGFR2 = biological target: T6, FGFR2 (Homo sapiens, UniProt P21802); assay: KINOMEscan scanEDGE; type: binding; settings: 20 uM
T6 construct: purchased Eurofins DiscoverX (KINOMEscan; SAFETYscan E/IC50 ELECT)
Description: as §1

PCTK1 = biological target: T7, PCTK1 (Homo sapiens, UniProt Q00536); assay: KINOMEscan scanEDGE; type: binding; settings: 20 uM
T7 construct: purchased Eurofins DiscoverX (KINOMEscan; SAFETYscan E/IC50 ELECT)
Description: as §1

PIM1 = biological target: T8, PIM1 (Homo sapiens, UniProt P11309); assay: KINOMEscan scanEDGE; type: binding; settings: 20 uM
T8 construct: purchased Eurofins DiscoverX (KINOMEscan; SAFETYscan E/IC50 ELECT)
Description: as §1

PIM3 = biological target: T9, PIM3 (Homo sapiens, UniProt Q86V86); assay: KINOMEscan scanEDGE; type: binding; settings: 20 uM
T9 construct: purchased Eurofins DiscoverX (KINOMEscan; SAFETYscan E/IC50 ELECT)
Description: as §1

[2] = biological target: T10, TYK2(JH1domain-catalytic) (Homo sapiens, UniProt P29597); assay: KINOMEscan scanEDGE; type: binding; settings: 20 uM
T10 construct: TYK2(JH1domain-catalytic); purchased Eurofins DiscoverX (KINOMEscan; SAFETYscan E/IC50 ELECT)
Description: as §1

KIT(V559D,T670I) = biological target: T11, KIT(V559D,T670I) (Homo sapiens, UniProt P10721, T670I/V559D); assay: KINOMEscan scanEDGE; type: binding; settings: 20 uM
T11 construct: purchased Eurofins DiscoverX (KINOMEscan; SAFETYscan E/IC50 ELECT)
Description: as §1

KIT = biological target: T12, KIT (Homo sapiens, UniProt P10721); assay: KINOMEscan scanEDGE; type: binding; settings: 20 uM
T12 construct: purchased Eurofins DiscoverX (KINOMEscan; SAFETYscan E/IC50 ELECT)
Description: as §1

MKNK1 = biological target: T13, MKNK1 (Homo sapiens, UniProt Q9BUB5); assay: KINOMEscan scanEDGE; type: binding; settings: 20 uM
T13 construct: purchased Eurofins DiscoverX (KINOMEscan; SAFETYscan E/IC50 ELECT)
Description: as §1

JNK2 = biological target: T14, JNK2 (Homo sapiens, UniProt P45984); assay: KINOMEscan scanEDGE; type: binding; settings: 20 uM
T14 construct: purchased Eurofins DiscoverX (KINOMEscan; SAFETYscan E/IC50 ELECT)
Description: as §1

EPHA2 = biological target: T15, EPHA2 (Homo sapiens, UniProt P29317); assay: KINOMEscan scanEDGE; type: binding; settings: 20 uM
T15 construct: purchased Eurofins DiscoverX (KINOMEscan; SAFETYscan E/IC50 ELECT)
Description: as §1

BTK = biological target: T16, BTK (Homo sapiens, UniProt Q06187); assay: KINOMEscan scanEDGE; type: binding; settings: 20 uM
T16 construct: purchased Eurofins DiscoverX (KINOMEscan; SAFETYscan E/IC50 ELECT)
Description: as §1

AKT1 = biological target: T17, AKT1 (Homo sapiens, UniProt P31749); assay: KINOMEscan scanEDGE; type: binding; settings: 20 uM
T17 construct: purchased Eurofins DiscoverX (KINOMEscan; SAFETYscan E/IC50 ELECT)
Description: as §1

PIK3C2B = biological target: T18, PIK3C2B (Homo sapiens, UniProt O00750); assay: KINOMEscan scanEDGE; type: binding; settings: 20 uM
T18 construct: purchased Eurofins DiscoverX (KINOMEscan; SAFETYscan E/IC50 ELECT)
Description: as §1

DCAMKL1 = biological target: T19, DCAMKL1 (Homo sapiens, UniProt O15075); assay: KINOMEscan scanEDGE; type: binding; settings: 20 uM
T19 construct: purchased Eurofins DiscoverX (KINOMEscan; SAFETYscan E/IC50 ELECT)
Description: as §1

CSNK1G2 = biological target: T20, CSNK1G2 (Homo sapiens, UniProt P78368); assay: KINOMEscan scanEDGE; type: binding; settings: 20 uM
T20 construct: purchased Eurofins DiscoverX (KINOMEscan; SAFETYscan E/IC50 ELECT)
Description: as §1

[3] = biological target: T21, ABL1(T315I)-phosphorylated (Homo sapiens, UniProt P00519, T315I); assay: KINOMEscan scanEDGE; type: binding; settings: 20 uM
T21 construct: purchased Eurofins DiscoverX (KINOMEscan; SAFETYscan E/IC50 ELECT)

[4] = biological target: mouse gastrocnemius myofibrils; assay: Myofibril ATPase, mouse gastrocnemius; type: biochemical; settings: 21% IIa, 15% IIx, 56% IIb
[5] = biological target: Rabbit Cardiac myofibrils; assay: Myofibril ATPase, rabbit cardiac; type: biochemical; settings: 25% MHCα, 75% MHC β, at pCa 50
mdx lumbrical muscle = assay: Ex vivo mdx lumbrical muscle contraction, calcium and clots; set-up: species or system mouse
Description: Intracellular calcium quantification and isometric injury were described previously ([31]). Lumbrical muscles were transferred to a custom-built chamber and mounted horizontally to a force transducer (model 400A, Aurora Scientific) at 25°C. Sarcomere length was adjusted to 2.5 μm by microscope. Contraction was elicited with 0.2-millisecond stimuli and injury via 1-second stimuli at 125 Hz.
For fluorescence experiments, a 75W xenon lamp was used with wavelengths selected using a diffraction grating monochromator (model DeltaRAM, Photon Technology International). Muscles were loaded with mag-fura-2 AM (10 μM in Tyrode) for 30 minutes at 25°C, excited at 344 and 375 nm (bandwidth 10 nm), and passed through a 510 nm emission filter (bandwidth 40 nm). Fluorescence responses were recorded alternately during 32 twitch contractions at 20-second intervals; background fluorescence was subtracted, and the response was averaged. High-affinity fura-2 was used to detect membrane breaches between tetanic contractions. Muscles were incubated with fura-2 AM (15 μM in Tyrode) for 30 minutes before 12 injurious contractions, separated by 1 minute with (10/s) alternating excitation wavelengths of 340 and 375 nm (bandwidth 1.25 nm) with a 510 nm emission filter (bandwidth 40 nm) and preloading background subtraction. Still and video images were captured using a digital camera (Nikon D750).

T2 sequence (P35968 20-1356): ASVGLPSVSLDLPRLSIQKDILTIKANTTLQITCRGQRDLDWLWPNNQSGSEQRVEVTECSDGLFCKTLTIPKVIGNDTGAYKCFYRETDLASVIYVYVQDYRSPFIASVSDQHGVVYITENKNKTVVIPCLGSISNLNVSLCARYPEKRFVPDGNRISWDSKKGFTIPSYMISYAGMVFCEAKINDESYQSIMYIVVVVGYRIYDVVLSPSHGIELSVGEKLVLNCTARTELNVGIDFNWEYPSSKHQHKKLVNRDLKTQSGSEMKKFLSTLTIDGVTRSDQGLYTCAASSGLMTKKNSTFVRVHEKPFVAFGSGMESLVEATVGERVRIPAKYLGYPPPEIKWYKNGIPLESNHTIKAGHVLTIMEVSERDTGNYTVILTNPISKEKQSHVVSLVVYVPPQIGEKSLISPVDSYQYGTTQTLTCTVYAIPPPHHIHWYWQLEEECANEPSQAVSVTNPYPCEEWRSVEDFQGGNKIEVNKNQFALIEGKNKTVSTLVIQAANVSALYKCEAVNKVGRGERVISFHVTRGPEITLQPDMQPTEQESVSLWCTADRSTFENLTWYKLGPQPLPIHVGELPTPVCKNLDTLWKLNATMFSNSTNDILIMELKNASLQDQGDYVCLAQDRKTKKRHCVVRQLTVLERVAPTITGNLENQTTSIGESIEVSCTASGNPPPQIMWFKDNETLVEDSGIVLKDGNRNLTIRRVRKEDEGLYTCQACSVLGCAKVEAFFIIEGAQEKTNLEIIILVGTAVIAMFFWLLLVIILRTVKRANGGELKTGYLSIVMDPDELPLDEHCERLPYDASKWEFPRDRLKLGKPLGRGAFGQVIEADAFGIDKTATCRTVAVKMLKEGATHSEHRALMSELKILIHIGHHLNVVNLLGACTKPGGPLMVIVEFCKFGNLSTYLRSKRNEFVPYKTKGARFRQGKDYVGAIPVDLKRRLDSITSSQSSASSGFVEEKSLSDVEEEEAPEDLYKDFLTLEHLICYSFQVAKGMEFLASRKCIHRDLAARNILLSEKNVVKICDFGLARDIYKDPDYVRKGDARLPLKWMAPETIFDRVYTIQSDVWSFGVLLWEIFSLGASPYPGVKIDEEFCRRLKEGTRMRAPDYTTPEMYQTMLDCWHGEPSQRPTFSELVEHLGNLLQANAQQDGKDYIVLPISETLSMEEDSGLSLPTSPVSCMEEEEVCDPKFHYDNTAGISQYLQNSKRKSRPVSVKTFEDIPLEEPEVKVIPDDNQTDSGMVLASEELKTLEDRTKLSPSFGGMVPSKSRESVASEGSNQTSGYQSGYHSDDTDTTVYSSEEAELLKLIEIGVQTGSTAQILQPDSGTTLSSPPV
T11 sequence (P10721 26-976 V559D/T670I): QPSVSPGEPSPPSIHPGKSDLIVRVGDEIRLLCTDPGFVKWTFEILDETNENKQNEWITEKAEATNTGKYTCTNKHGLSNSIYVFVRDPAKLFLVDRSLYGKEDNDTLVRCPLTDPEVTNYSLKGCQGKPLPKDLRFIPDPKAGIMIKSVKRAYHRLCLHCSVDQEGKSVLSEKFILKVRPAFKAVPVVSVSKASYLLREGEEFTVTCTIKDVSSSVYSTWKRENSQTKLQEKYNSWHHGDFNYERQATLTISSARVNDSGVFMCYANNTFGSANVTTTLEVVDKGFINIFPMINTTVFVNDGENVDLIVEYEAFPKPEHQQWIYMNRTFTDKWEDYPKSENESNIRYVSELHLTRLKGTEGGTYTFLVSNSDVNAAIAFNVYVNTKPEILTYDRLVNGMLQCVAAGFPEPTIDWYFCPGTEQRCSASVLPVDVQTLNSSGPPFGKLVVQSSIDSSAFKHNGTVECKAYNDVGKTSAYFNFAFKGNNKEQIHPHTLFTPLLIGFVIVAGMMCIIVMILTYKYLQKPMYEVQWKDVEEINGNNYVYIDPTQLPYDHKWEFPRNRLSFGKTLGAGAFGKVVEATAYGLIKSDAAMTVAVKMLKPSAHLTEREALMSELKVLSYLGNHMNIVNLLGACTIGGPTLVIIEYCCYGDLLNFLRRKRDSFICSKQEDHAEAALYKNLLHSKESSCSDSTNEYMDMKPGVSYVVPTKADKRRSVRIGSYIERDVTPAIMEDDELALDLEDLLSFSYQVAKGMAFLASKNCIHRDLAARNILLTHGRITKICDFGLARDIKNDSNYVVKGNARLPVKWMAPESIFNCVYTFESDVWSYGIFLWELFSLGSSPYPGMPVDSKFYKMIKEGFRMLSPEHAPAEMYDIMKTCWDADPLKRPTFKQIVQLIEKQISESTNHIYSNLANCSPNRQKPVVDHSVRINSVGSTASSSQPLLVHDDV
T13 sequence (Q9BUB5 whole entry): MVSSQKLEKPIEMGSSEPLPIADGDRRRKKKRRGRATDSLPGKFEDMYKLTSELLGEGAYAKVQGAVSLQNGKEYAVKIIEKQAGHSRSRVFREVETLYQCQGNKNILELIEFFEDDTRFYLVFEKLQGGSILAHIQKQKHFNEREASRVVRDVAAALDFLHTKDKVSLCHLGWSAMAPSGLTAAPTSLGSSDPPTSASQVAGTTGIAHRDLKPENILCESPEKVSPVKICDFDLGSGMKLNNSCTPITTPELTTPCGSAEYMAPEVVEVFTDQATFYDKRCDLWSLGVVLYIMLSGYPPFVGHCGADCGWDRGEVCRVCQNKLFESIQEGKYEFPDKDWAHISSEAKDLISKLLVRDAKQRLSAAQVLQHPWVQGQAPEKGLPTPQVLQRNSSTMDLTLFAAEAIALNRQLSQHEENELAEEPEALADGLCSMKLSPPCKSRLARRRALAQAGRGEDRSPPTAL
T16 sequence (Q06187 whole entry): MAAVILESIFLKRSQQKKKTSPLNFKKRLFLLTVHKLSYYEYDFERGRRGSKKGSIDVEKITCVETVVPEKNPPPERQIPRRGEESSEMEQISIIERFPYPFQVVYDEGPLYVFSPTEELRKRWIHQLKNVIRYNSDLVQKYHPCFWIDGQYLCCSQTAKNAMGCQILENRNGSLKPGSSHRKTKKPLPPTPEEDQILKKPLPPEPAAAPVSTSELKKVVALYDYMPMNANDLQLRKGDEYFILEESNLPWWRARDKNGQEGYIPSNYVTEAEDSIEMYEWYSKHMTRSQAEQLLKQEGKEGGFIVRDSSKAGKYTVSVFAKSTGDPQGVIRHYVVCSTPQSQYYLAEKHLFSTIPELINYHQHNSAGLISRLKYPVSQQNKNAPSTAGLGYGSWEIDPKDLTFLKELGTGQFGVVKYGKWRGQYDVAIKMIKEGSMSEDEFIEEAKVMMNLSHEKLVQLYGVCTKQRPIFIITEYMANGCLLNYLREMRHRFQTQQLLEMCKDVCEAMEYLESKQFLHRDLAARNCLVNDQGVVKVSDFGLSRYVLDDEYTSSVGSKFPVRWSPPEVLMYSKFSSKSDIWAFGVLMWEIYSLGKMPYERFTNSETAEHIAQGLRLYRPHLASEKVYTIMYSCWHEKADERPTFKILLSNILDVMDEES
T12 sequence (P10721 26-976): as the sequence (P10721 26-976 V559D/T670I) above, with D534V, I645T counted along it
T4 sequence (Q13464 whole entry): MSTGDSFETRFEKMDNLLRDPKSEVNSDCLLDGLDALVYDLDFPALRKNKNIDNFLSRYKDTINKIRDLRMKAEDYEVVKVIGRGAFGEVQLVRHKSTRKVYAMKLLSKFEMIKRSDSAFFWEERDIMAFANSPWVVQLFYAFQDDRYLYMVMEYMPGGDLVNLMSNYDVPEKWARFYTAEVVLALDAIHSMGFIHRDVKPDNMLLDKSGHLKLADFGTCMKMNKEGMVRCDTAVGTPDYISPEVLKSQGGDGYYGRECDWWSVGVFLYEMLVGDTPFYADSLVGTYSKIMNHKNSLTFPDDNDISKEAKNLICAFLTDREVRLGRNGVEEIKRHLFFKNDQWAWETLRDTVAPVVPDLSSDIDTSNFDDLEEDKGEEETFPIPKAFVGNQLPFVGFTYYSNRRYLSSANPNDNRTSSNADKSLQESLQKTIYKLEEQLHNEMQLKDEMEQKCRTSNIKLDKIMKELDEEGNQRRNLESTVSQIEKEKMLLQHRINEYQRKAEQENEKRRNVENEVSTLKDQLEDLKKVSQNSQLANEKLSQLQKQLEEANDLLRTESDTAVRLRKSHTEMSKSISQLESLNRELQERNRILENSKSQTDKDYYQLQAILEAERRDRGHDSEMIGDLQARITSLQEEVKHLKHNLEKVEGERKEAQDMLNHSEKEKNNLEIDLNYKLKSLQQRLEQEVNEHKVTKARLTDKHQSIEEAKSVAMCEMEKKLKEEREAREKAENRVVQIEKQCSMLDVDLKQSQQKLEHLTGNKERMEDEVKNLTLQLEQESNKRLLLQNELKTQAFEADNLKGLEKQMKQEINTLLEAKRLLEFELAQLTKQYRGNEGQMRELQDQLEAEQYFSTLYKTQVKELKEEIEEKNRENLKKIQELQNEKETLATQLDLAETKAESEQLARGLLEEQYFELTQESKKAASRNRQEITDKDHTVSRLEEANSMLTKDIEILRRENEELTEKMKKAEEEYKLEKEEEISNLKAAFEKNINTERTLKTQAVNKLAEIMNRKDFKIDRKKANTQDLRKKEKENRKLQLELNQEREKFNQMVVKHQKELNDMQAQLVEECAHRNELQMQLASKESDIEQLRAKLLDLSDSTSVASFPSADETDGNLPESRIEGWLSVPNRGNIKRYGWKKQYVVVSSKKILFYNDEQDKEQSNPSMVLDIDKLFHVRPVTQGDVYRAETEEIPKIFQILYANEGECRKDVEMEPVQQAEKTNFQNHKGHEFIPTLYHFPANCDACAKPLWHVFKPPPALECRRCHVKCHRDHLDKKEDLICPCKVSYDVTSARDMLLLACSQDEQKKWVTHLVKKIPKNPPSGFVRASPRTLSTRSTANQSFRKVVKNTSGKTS

O=c1ccc(-c2cnc(OCC(F)(F)F)nc2)nn1Cc1cncc(F)c1 [EDG-5506]
Emax (LCK): 0% | Emax (VEGFR2): 18.1% | Emax (INSR): 26.9% | Emax (ROCK1): 24.6% | ex vivo force inhibition [1]: partial force inhibition | binding, % of control (MLK1): 98 % of control | binding, % of control (FGFR2): 84 % of control | binding, % of control (PCTK1): 100 % of control | binding, % of control (PIM1): 97 % of control | binding, % of control (PIM3): 99 % of control | binding, % of control [2]: 87 % of control | binding, % of control (KIT(V559D,T670I)): 100 % of control | binding, % of control (KIT): 98 % of control | binding, % of control (MKNK1): 85 % of control | binding, % of control (JNK2): 96 % of control | binding, % of control (EPHA2): 58 % of control | binding, % of control (BTK): 93 % of control | binding, % of control (AKT1): 100 % of control | binding, % of control (PIK3C2B): 100 % of control | binding, % of control (DCAMKL1): 76 % of control | binding, % of control (CSNK1G2): 96 % of control | binding, % of control [3]: 94 % of control | IC50 [4]: 400 nM | IC50 [5]: > 100000 nM | reduction of specific tension before injury (mdx lumbrical muscle; 0.3 μM): 15% | strength drop with contraction (mdx lumbrical muscle; mdx lumbrical): completely prevented | clot formation (hypercontraction) (mdx lumbrical muscle; mdx lumbrical, after 12 contractions): completely prevented clot formation | concentration of maximal efficacy (mdx lumbrical muscle; mdx lumbrical, repeated tetanic contraction): 0.3 µM
